Type in all cases: cell-based
The subject of assay [1] is primary cultured SD fetal rat cortical neurons after OGD damage. Briefly: OGD damage of cortical neurons, observation under light microscope. The following applies: OGD 2 h, 24 h reoxygenation; ABPPk2 medium-dose (40 ng/ml) and high-dose (200 ng/ml) groups vs OGD damage group. As to the method:
(§1) The suspension was filtered with a 400-mesh screen, centrifuged at 1000 rpm for 5 min, and blown to form the single cell suspension. DMEM high glucose complete medium (containing 10% fetal bovine serum) was inoculated in a culture dish or culture plate pre-coated with polylysine (PLL) to culture in 5% CO2 incubator with saturated humidity at 37° C. After the cells were cultured for 4 h to adhere to the wall, the cells were cultured with neuron culture medium (neurobasal+2% B27) for 3 d to observe the growth of neurons. The culture medium containing cytarabine (the final concentration of cytarabine was 2.5 μg/ml) was substituted with half quantity to culture for 3d to inhibit the growth of glial cells and miscellaneous cells to obtain purely cultured primary cortical nerve cells. The purity of the cortical neurons was identified by immunocytochemical staining as more than 90%.
(§2) After the cortical neurons were cultured to the 7th day, the original culture medium was sucked out, and the cells were rinsed twice with sugar-free DMEM basal medium, for 5 min each time. Each OGD damage group was added with DMEM sugar-free culture medium, placed in a Billups-Rothenberg anaerobic culture chamber, filled with 95% N2/5% CO2 to balance for 15 min, and sealed for 2 h to build an OGD model. […]

The test system is the same in assay [2]. Briefly: OGD damage of cortical neurons, Hoechst 33258 staining of apoptotic bodies. To be noted: OGD 2 h, 24 h reoxygenation; ABPPk2 8, 40, 200 ng/ml, dose-dependent; BDNF 10 ng/ml. The procedure:
as §1, §2

For assay [3] the test system is unchanged. In words: OGD damage of cortical neurons, ROS content (reactive oxygen detection kit). The following applies: OGD 2 h, 24 h reoxygenation; ABPPk2 8, 40, 200 ng/ml; obvious dose-effect relationship. The procedure: as §1, with “90%. […]” for “90%.”
(6) Effect of ABPPk2 on ROS content of cortical neurons after OGD damage: cortical neurons were inoculated in a 6-well plate at 1×10^6 cells/ml; 2 ml of cell suspension was added to each well; and the cortical neurons were cultured to the 7th day. […] The effect of ABPPk2 on the ROS content of the cortical neurons after OGD damage was detected by a reactive oxygen detection kit.

Where no end group is shown, it is not given here.

For the substance “Cys-Leu-Glu-Ser-Gly-Thr-Ser-Cys-Ile-Pro-Gly-Ala-Gln-His-Asn-Cys-Cys-Ser-Gly-Val-Cys-Val-Pro-Ile-Val-Thr-Ile-Phe-Tyr-Gly-Val-Cys-Tyr (CLESGTSCIPGAQHNCCSGVCVPIVTIFYGVCY; disulfide (positions not given here); not fully specified (bridges); also: three disulfide bonds, pairing not given here) [ABPPk2, 33 amino acid polypeptide isolated from the extract of Achyranthes bidentata Blume, three pairs of disulfide bonds]”, in assay [1], the “dead cells under light microscope” value is “the number of dead cells is significantly reduced”. Also, the “apoptotic bodies of cortical neuron nuclei” value in assay [2] is “the apoptotic bodies of the cortical neuron nuclei were reduced”. In assay [3], the ROS content result is recorded as “can reduce the ROS content”.

These data come from patent US20230151065A1, “MULTI-DISULFIDE-BOND LONG-CHAIN PEPTIDE WITH NEURO[…], PHARMACEUTICAL COMPOSITION AND APPLICATION” (priority 2018, published 2023).
